How the values were obtained:
L132 = experiment: Cytotoxicity against human L132 cells assessed as reduction in cell viability by MTT assay; format: cell-based
SK-MEL-28 = experiment: Cytotoxicity against human SK-MEL-28 cells assessed as reduction in cell viability by MTT assay; format: functional, cell-based
A-375 = experiment: Cytotoxicity against human A-375 cells assessed as reduction in cell viability by MTT assay; format: functional, cell-based
MDA-MB-468 = experiment: Cytotoxicity against human MDA-MB-468 cells assessed as cell viability at 10 uM incubated for 48 hrs by sulforhodamine B assay relative to control; format: functional; details: read-out: Activity
CAKI-1 = experiment: Cytotoxicity against human CAKI-1 cells assessed as cell viability at 10 uM incubated for 48 hrs by sulforhodamine B assay relative to control; format: functional; details: read-out: Activity
ACHN = experiment: Cytotoxicity against human ACHN cells assessed as cell viability at 10 uM incubated for 48 hrs by sulforhodamine B assay relative to control; format: functional; details: read-out: Activity
OVCAR-8 = experiment: Cytotoxicity against human OVCAR-8 cells assessed as cell viability at 10 uM incubated for 48 hrs by sulforhodamine B assay relative to control; format: functional; details: read-out: Activity
UACC-257 = experiment: Cytotoxicity against human UACC-257 cells assessed as cell viability at 10 uM incubated for 48 hrs by sulforhodamine B assay relative to control; format: functional; details: read-out: Activity
SK-MEL-2 = experiment: Cytotoxicity against human SK-MEL-2 cells assessed as cell viability at 10 uM incubated for 48 hrs by sulforhodamine B assay relative to control; format: functional; details: read-out: Activity
MDA-MB-435 = experiment: Cytotoxicity against human MDA-MB-435 cells assessed as cell viability at 10 uM incubated for 48 hrs by sulforhodamine B assay relative to control; format: functional; details: read-out: Activity
CCRF-CEM = experiment: Cytotoxicity against human CCRF-CEM cells assessed as cell viability at 10 uM incubated for 48 hrs by sulforhodamine B assay relative to control; format: functional; details: read-out: Activity
SR = experiment: Cytotoxicity against human SR cells assessed as cell viability at 10 uM incubated for 48 hrs by sulforhodamine B assay relative to control; format: functional; details: read-out: Activity
EKVX = experiment: Cytotoxicity against human EKVX cells assessed as cell viability at 10 uM incubated for 48 hrs by sulforhodamine B assay relative to control; format: functional; details: read-out: Activity
NCI-H23 = experiment: Cytotoxicity against human NCI-H23 cells assessed as cell viability at 10 uM incubated for 48 hrs by sulforhodamine B assay relative to control; format: functional; details: read-out: Activity
NCI-H322M = experiment: Cytotoxicity against human NCI-H322M cells assessed as cell viability at 10 uM incubated for 48 hrs by sulforhodamine B assay relative to control; format: functional; details: read-out: Activity
NCI-H522 = experiment: Cytotoxicity against human NCI-H522 cells assessed as cell viability at 10 uM incubated for 48 hrs by sulforhodamine B assay relative to control; format: functional; details: read-out: Activity
HCC 2998 = experiment: Cytotoxicity against human HCC 2998 cells assessed as cell viability at 10 uM incubated for 48 hrs by sulforhodamine B assay relative to control; format: functional; details: read-out: Activity
HCT-116 = experiment: Cytotoxicity against human HCT-116 cells assessed as cell viability at 10 uM incubated for 48 hrs by sulforhodamine B assay relative to control; format: functional; details: read-out: Activity
SF-295 = experiment: Cytotoxicity against human SF-295 cells assessed as cell viability at 10 uM incubated for 48 hrs by sulforhodamine B assay relative to control; format: functional; details: read-out: Activity
U-251 = experiment: Cytotoxicity against human U-251 cells assessed as cell viability at 10 uM incubated for 48 hrs by sulforhodamine B assay relative to control; format: functional; details: read-out: Activity
LOX IMVI = experiment: Cytotoxicity against human LOX IMVI cells assessed as cell viability at 10 uM incubated for 48 hrs by sulforhodamine B assay relative to control; format: functional; details: read-out: Activity
[1] = molecular target: RAF proto-oncogene serine/threonine-protein kinase (Homo sapiens, UniProt P04049); experiment: Inhibition of human CRAF using MEK1 as substrate by [gamma-33P]-ATP assay
Sequence of RAF proto-oncogene serine/threonine-protein kinase (P04049 whole entry): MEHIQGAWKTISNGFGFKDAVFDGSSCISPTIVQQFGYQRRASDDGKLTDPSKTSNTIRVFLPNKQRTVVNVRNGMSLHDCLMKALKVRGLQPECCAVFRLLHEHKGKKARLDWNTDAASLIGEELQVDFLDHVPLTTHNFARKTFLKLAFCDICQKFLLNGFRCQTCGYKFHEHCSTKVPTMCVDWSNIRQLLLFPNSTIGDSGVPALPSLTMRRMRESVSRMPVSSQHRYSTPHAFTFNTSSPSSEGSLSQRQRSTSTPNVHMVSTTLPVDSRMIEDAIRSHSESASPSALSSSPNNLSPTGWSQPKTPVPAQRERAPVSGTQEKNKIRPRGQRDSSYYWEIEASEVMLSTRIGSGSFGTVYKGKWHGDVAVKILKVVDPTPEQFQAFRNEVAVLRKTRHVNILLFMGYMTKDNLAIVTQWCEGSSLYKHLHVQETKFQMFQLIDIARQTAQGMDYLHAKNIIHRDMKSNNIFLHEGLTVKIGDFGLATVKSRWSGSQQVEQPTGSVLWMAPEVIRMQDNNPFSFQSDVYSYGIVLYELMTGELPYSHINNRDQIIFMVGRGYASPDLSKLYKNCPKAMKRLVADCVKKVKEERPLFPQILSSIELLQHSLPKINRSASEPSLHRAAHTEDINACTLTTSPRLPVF

[2] = molecular target: Serine/threonine-protein kinase B-raf (Homo sapiens, UniProt P15056, V600E); experiment: Inhibition of human BRAF V600E mutant using MEK1 as substrate by […] assay
Sequence of Serine/threonine-protein kinase B-raf (Homo sapiens, UniProt P15056, V600E) (P15056 2-766 V600E limits assumed): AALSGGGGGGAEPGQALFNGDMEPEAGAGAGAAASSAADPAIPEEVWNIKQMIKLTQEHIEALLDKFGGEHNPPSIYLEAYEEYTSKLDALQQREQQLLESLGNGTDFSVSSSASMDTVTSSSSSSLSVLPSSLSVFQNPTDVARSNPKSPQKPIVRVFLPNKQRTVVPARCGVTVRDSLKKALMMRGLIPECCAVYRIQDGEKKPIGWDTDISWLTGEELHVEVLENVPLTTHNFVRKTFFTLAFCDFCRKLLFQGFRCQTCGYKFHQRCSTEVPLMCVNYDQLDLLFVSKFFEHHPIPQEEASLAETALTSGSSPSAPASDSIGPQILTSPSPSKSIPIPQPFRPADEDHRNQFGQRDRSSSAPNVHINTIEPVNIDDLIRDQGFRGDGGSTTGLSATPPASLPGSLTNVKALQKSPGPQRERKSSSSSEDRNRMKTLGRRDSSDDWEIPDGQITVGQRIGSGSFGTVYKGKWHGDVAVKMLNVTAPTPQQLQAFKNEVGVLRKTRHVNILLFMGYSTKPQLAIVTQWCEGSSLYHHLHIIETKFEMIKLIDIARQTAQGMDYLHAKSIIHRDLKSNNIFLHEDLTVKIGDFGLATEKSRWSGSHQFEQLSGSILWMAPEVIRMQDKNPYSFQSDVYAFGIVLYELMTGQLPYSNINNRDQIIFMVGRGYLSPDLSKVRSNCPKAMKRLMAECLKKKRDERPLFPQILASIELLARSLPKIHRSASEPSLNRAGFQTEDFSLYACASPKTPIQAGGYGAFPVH

[3] = molecular target: Serine/threonine-protein kinase B-raf (Homo sapiens, UniProt P15056); experiment: Inhibition of human BRAF using MEK1 as substrate by […] assay
Sequence of Serine/threonine-protein kinase B-raf (Homo sapiens, UniProt P15056) (P15056 whole entry): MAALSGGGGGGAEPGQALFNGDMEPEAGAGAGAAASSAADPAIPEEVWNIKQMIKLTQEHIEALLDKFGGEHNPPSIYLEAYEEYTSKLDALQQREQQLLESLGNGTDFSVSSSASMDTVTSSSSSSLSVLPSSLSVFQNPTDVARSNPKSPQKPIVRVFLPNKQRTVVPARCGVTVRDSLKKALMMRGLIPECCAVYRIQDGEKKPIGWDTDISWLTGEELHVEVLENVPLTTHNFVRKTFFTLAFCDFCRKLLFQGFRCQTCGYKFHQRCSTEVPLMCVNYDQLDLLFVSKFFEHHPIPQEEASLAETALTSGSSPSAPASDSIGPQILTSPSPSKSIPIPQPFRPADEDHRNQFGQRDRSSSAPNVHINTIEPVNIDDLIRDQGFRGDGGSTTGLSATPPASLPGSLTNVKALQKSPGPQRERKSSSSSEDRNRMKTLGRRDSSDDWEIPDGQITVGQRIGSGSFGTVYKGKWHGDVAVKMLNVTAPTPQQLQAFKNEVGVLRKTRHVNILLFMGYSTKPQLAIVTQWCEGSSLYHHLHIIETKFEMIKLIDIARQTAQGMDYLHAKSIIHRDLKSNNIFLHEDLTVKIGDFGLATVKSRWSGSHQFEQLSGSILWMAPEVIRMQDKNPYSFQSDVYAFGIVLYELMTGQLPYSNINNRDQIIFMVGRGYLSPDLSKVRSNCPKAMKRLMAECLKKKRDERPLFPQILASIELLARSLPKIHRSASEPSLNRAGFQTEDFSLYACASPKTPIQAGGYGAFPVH

Compound	IC50 (SK-MEL-28)	IC50 (A-375)	viability at 10 µM (MDA-MB-468)	viability at 10 µM (CAKI-1)	viability at 10 µM (ACHN)	viability at 10 µM (OVCAR-8)	viability at 10 µM (UACC-257)	viability at 10 µM (SK-MEL-2)	viability at 10 µM (MDA-MB-435)	viability at 10 µM (CCRF-CEM)	viability at 10 µM (SR)	viability at 10 µM (EKVX)	viability at 10 µM (NCI-H23)	viability at 10 µM (NCI-H322M)	viability at 10 µM (NCI-H522)	viability at 10 µM (HCC 2998)	viability at 10 µM (HCT-116)	viability at 10 µM (SF-295)	viability at 10 µM (U-251)	viability at 10 µM (LOX IMVI)	further results
O=S(=O)(NCCCNc1nccc(-c2c(-c3cccc(F)c3)nc3sccn23)n1)c1ccccc1	6.85 µM	6.6 µM	62.7%	56.4%	54.1%	43%	86.7%	65.1%	41.7%	44.1%	82.2%	65.4%	76.9%	89.3%	47%	120%	56.7%	79.9%	82.3%	50.3%	IC50 (L132): > 400 µM
O=C(NCCNc1nccc(-c2c(-c3cccc(F)c3)nc3sccn23)n1)c1ccc(Cl)cc1	8.16 µM	2.57 µM	67.8%	41.5%	34.2%	55.1%	76%	62.5%	32%	58.1%	46.5%	63.2%	73.5%	66.3%	68.4%	90.1%	33%	73.8%	66.1%	43.4%	IC50 [1]: 0.12 µM; IC50 [2]: 0.0272 µM; IC50 [3]: 0.105 µM
O=S(=O)(NCCNc1nccc(-c2c(-c3cccc(F)c3)nc3sccn23)n1)c1cccc(F)c1	18.3 µM	14.9 µM	68.6%	44.6%	39.9%	60.1%	104%	81.8%	41.9%	63.3%	45.5%	72.1%	83.4%	77.1%	75.8%	95.5%	42.8%	80.6%	60.7%	51.2%	
O=S(=O)(NCCNc1nccc(-c2c(-c3cccc(F)c3)nc3sccn23)n1)c1ccc(Br)cc1	13.5 µM	13.5 µM	78.3%	35.1%	30.2%	45.5%	82%	71.7%	21.3%	51%	31.7%	59.5%	72.6%	61%	62.6%	79.5%	33.9%	58.7%	53.4%	38.5%	
O=C(NCCCNc1nccc(-c2c(-c3cccc(F)c3)nc3sccn23)n1)c1ccc(F)cc1	> 20 µM	14.9 µM	59.2%	73%	74.9%	68.4%	116%	95%	72.6%	75.9%	99.8%	82%	105%	96.3%	85.2%	112%	62.5%	97.2%	90.6%	79.5%	

Source: ChEMBL document CHEMBL4665642, “Anticancer profile of newly synthesized BRAF inhibitors possess 5-(pyrimidin-4-yl)imidazo[2,1-b]thiazole scaffold” (Bioorg Med Chem, 2019)
